How the values were obtained:
[1] = ABTS radical cation scavenging assay; assay type: biochemical; settings: NS = not statistically significant
Excerpt: The method of estimating antioxidant capacity, based on the ability to interact with the ABTS.+ radical cation was first performed by Miller et al. in 1993 (Miller, Nicholas et al., Clinical Science, 1993, 84: 407-412, “A novel method for measuring the antioxidant capacity and its application to monitoring the antioxidant status in premature neonates”). The mechanism of interaction of the antioxidant agents to be examined with the ABTS.+ radical is similar to that of the DPPH. radical, which can be inactivated either by the addition of an electron or by the addition of a hydrogen atom. However, unlike the DPPH. radical, which is a stable radical from the beginning, the ABTS.+ radical must be produced by the oxidation of ABTS. Thus, in order to estimate the antioxidant capacity of a substance, the formation of the ABTS.+ radical must first precede and the addition of the substance to be examined must follow. The addition of the antioxidant agent is performed after the production of the root ABTS.+ to avoid the interaction of the antioxidant agents with the oxidizing agents used for the oxidation of ABTS.
The oxidation of ABTS takes place either through chemical reactions with various reagents or through the action of enzymes such as peroxidases. The ABTS.+ radical from the moment it is formed is stable, has a green color and absorbs at 730 nm. When a substance with antioxidant activity is added to the solution, then the ABTS.+ radical is reduced by the addition of a hydrogen (or electron) atom, resulting in reduced visual absorption.
To assess the antioxidant capacity of the samples, the oxidation of ABTS was performed enzymatically through the action of horseradish peroxidase (HRP), in the presence of H2O2 (FIG. 3)
The anti-oxidant capacity of the GS compounds was evaluated by performing the ABTS assay as previously described (Kouka, Paraskevi et al., Oxid Med Cell Longev. 2019, Article ID 1870965). Briefly, in a total reaction volume of 1 mL in distilled water (dH2O), ABTS.^+ (1 mM), H2O2 (30 μM), and horseradish peroxidase (HRP) (6 μM) in 50 mM phosphate-buffered saline were added. The solution was incubated for 45 min at room temperature (RT) in the dark. Finally, 10 μL of the tested GS compound at various concentrations was added, and the absorbance was monitored on a Hitachi U-1900 radio beam spectrophotometer (serial no. 2023-029; Hitachi Ltd.) at 730 nm. In each experiment, a blank without the HRP was used, while the ABTS.^+ radical solution without the extract was used as the control. The RSC percentage of the tested extracts was calculated using the following equation: RSC (%)=[(ODcontrol−ODcompound)/ODcontrol]×100, where ODcontrol and OD sample are the optical density (OD) values of the control and the test sample, respectively.

[2] = test system: HeLa cervical cancer cells; assay: XTT cell growth assay, HeLa; assay type: cell-based, human; settings: 24 h, NS = not statistically significant; for inhibition at 50 µM: Homo sapiens, HeLa, read-out: Effectiveness to suppress HeLa cell growth (cell growth inhibition)
Outline: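 HeLa cells in DMEM were plated and incubated 24 h, then exposed 24 h to compound at 5, 10 or 50 μM in serum-free DMEM. After 4 h with XTT reagent, formazan absorbance was read at 450 nm (630 nm reference); serum-free medium served as negative control.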

[3] = test system: MKN-45 gastric cancer cells; assay: XTT cell growth assay, MKN-45; assay type: cell-based, human; settings: NS = not statistically significant; for inhibition at 50 µM: Homo sapiens, MKN-45, 24 h, read-out: Effectiveness to suppress MKN-45 cell growth (cell growth inhibition)
HepG2 liver cancer cells = assay: XTT cell growth assay, HepG2; assay type: cell-based, human; settings: NS = not statistically significant; for inhibition at 50 µM: Homo sapiens, HepG2, 24 h, read-out: Effectiveness to suppress HepG2 cell growth (cell growth inhibition)
Excerpt: The XTT assay is used to measure cellular metabolic activity as an indicator of cell viability, proliferation and cytotoxicity. This non-radioactive, colorimetric assay system was first described by Scudiero, et al. in 1988 (Paull, Kenneth D. et al., J Heterocycl Chem, 1988, 25: 911-914; Scudiero, Dominic A. et al., Cancer Res, 1988, 48: 4827-4833) and improved in subsequent years by several other investigators (Weislow, Owen S. et al., J Natl Cancer Inst, 1989, 81(8): 577-586; Roehm, N. W. et al., J Immunol Methods, 1991, 142: 257-265).
The XTT assay is based on the reduction of a yellow tetrazolium salt (sodium 3′-[1-(phenylaminocarbonyl)-3,4-tetrazolium]-bis (4-methoxy6-nitro) benzene sulfonic acid hydrate or XTT) to an orange formazan dye by metabolically active cells (FIG. 8). The formazan dye formed is soluble in aqueous solutions and is directly quantified using a scanning multiwell spectrophotometer (ELISA reader). An increase in number of living cells results in an increase in the overall activity of mitochondrial dehydrogenases in the sample. This increase directly correlates to the amount of orange formazan formed, as monitored by the absorbance. Reduced number of living cells leads to reduced metabolism of quaternary salt and therefore reduced absorption.
Cell viability was assessed using the XTT assay kit (Roche, Mannheim, Germany) as described previously (Kouka, Paraskevi et al., Oxid Med Cell Longev. 2019, Article ID 1870965). Briefly, cancer cells per well were cultured in a 96-well plate in Dulbecco's modified Eagle's medium (DMEM). Following a 24 h incubation, 5, 10 and 50 μM of the tested GS compound was diluted in a serum-free DMEM and administered for 24 h. Subsequently, 50 μL of the XTT reagent (50:1) was added to each well. After 4 h of incubation, the absorbance was monitored at 450 nm and also at 630 nm as a reference wavelength in a BioTek ELx800 microplate reader (BioTek Instruments Inc., Winooski, VT, USA). As a negative control, samples containing serum-free DMEM only were used.
Hep G2 (or HepG2) is a human liver cancer cell line. Hep G2 is an immortal cell line which was derived from the liver tissue of an adolescent with a well-differentiated hepatocellular carcinoma. Hep G2 cells are a suitable in vitro model system for the study of polarized human hepatocytes.
The effects of exemplary compounds on cancer cell lines and one non-tumorigenic cell line (control) were investigated using a high throughput screening assay. More specifically, the effects of the GS compounds on cell growth was evaluated by the XTT assay for cell lines HepG2, HeLa, MCF7 ER+, MDA-MB-231, and MKN-45, and by the Cell Glo luminescence assay for cell lines MIA PaCa-2, HCT-116, MCF-10A, and PANC-1.

Compound | ABTS Radical Cation Scavenging Assay IC50 [1] | inhibition at 50 µM [2] | inhibition at 50 µM [3] | inhibition at 50 µM (HepG2 liver cancer cells) | also measured
C/C=C(/C=O)[C@@H](CC=O)CC(=O)OCCOc1ccccc1 [GS24, (3S,4E)-4-formyl-3-(2-oxoethyl)-4-hexenoic acid 2-phenoxyethyl ester] | – | 66.6% | 35.4% | 57.9% | –
C/C=C(/C=O)[C@@H](CC=O)CC(=O)OCCCCCCCCCCCCCCCC [GS26, (3S,4E)-4-formyl-3-(2-oxoethyl)-4-hexenoic acid hexadecyl ester] | – | – | – | 50% | –
C/C=C(/C=O)[C@@H](CC=O)CC(=O)SCCc1ccccc1 [GS27, S-phenethyl (3S,4E)-4-formyl-3-(2-oxoethyl)hex-4-enethioate] | – | 39% | – | 40.9% | –
C/C=C(/C=O)[C@@H](CC=O)CC(=O)OCCCSC [GS28, (3S,4E)-4-formyl-3-(2-oxoethyl)-4-hexenoic acid 3-(methylthio)propyl ester] | – | 81% | 95% | 69.7% | Effectiveness to suppress MKN-45 cell growth (cell growth inhibition) ([3]; 50 uM, 24 h): highly effective; Effectiveness to suppress HeLa cell growth (cell growth inhibition) ([2]; 50 uM): best efficacy; Effectiveness to suppress HepG2 cell growth (cell growth inhibition) (HepG2 liver cancer cells; 50 uM, 24 h): best efficacy

Now from value to molecule, other results behind:

ABTS Radical Cation Scavenging Assay IC50 [1] | Compound | inhibition at 50 µM [2] | inhibition at 50 µM [3] | inhibition at 50 µM (HepG2 liver cancer cells) | also measured
8.2 μg extract/mL | C/C=C1/[C@H](OC2OC(CO)C(O)C(O)C2O)OC=C(C(=O)O)[C@H]1CC(=O)OCCc1ccc(O)c(O)c1 (stereo in doubt) [GS6, (2S,4S,E)-4-(2-(3,4-dihydroxyphenethoxy)-2-oxoethyl)-3-ethylidene-2{[(2R,3S,4R,5R,6S)-3,4,5-trihydroxy-6-(hydroxymethyl)tetrahydro-2H-pyran-2-yl]oxy}-3,4dihydro-2H-pyran-5-carboxylic acid] | 48% | – | – | –
20.9 μg extract/mL | C/C=C1/[C@H](O[C@@H]2O[C@H](CO)[C@@H](O)[C@H](O)[C@H]2O)OC=C(C(=O)OC)[C@H]1CC(=O)OCCc1ccc(O)c(O)c1 [GS1, oleuropein] | – | – | – | –
8 μg extract/mL | C/C=C(/C=O)[C@@H](CC=O)CC(=O)OCCc1ccc(O)c(O)c1 [GS17, (3S,4E)-4-formyl-3-(2-oxoethyl)-4-hexenoic acid 2-(3,4-dihydroxyphenyl)ethyl ester, reference compound] | – | – | – | –
38 μg extract/mL | C/C=C(/C=O)[C@@H](CC=O)CC(=O)OCCc1ccc(O)cc1 [GS19, (3S,4E)-4-formyl-3-(2-oxoethyl)-4-hexenoic acid 2-(4-hydroxyphenyl)ethyl ester, reference compound] | 79.1% | 44.4% | – | –

From US12414960B2, “Analogues of oleuropein and oleacein and uses thereof” (Attica Sciences Ltd., priority 2020, dated 2025)
